Data taken from US20130059324A1, “SYSTEMS AND METHODS FOR MECHANICALLY STRAINED CELL CULTURE” (THE UNIVERSITY OF KANSAS, priority 2010, published 2013).
Read-outs that look alike come from different tables or passages of the source.

Legend:
A549 cells [1] = test: Drug exposure with or without simulated forces, 6-well Bioflex plates, live cell count and exponential growth model; format: cell-based, human; conditions: for Growth Rates, With forces / Growth Rates, Without forces: drug at IC90 for 3 days; for Growth Rates, With forces: 20% maximum strain, 15 cycles/minute; for Growth Rates, Without forces: no forces, negative = reduction in viable cell count; for Effectiveness of The Drug, Without forces (E) / Effectiveness of The Drug, With forces (Ef): percentage reduction in live cell counts; for Effectiveness of The Drug, Without forces (E): 3-day drug exposure at IC90, no forces; for Effectiveness of The Drug, With forces (Ef): 3-day drug exposure at IC90, simulated forces
Method: (§1) Treatments 1, 2 and 3 served as unstretched controls for Treatments 4, 5 and 6, respectively. For each cell line and drug, all treatments were independently repeated at least 3 times on different days, with 3 replicates per Treatments 1 and 4 (n=9) and 5 replicates per all other treatments (n=15).
Cells were passaged in 75 cm2 culture flasks at 37° C. in 5% CO2, and trypsinized using TryplE™ Express (Gibco) containing phenol red.
Cells were plated in 6-well Bioflex® plates (Flexcell® International Corporation, Hillsborough, N.C.). Each well of the plate has a flexible elastic membrane coated with a thin layer of type I collagen. Type I collagen was chosen since it more accurately represents the physiology of lung tumor cells in vivo. […] In Treatments 1, 2 and 3, NCI-H358 and A549 cells were plated at a density of 100,000 and 20,000 cells/well in 2 ml of corresponding media, respectively. For treatments involving simulated forces (Treatments 4-6), NCI-H358 and A549 cells were plated at a density of 170,000 and 35,000 cells/well, respectively.
(§2) After allowing the cells to adhere to the membrane for 24 hours, the plates assigned for simulated forces were stretched using the FX-4000 Tension plus unit (Flexcell® International Corporation, Hillsborough, N.C.). The Flexcell unit was configured to deliver an alternating positive and negative pressure beneath the cell culture surfaces. Negative pressure pulls the culture surface down over a stationary Delrin post on the baseplate, delivering a uniform biaxial strain to the cells, and subsequent application of positive pressure releases this distension (FIGS. 9A and 9B.) In this manner, the alternating positive and negative pressure simulates forces experienced during respiration. Culture plates experiencing forces were fitted with rubber gaskets and placed on circular loading stations in the baseplate.
After 72 hours of initial seeding, one of the five drugs was added to Treatments 3 and 6 of each cell line. […] To insure comparability, an aliquot of 1 ml of media without the drug was added to each well in Treatments 2 and 5. After adding the drug or 1 ml of media, the plates from Treatments 5 and 6 were placed back on the baseplate and subjected to the same force profile as before for the remaining 72 hours. Plates from Treatments 2 and 3 (without forces) were placed in the same incubator for the remaining 72 hours.
(§3) Cells were trypsinized and counted at the end of day 3 in Treatments 1 and 4, and at the end of day 6 in the other treatments, using a Beckman Coulter Vi-Cell Analyzer (Beckman Coulter, Fullerton, Calif.). To examine changes in morphology, microphotographs of A549 and NCI-H358 cells were taken at the end of Treatments 1, 2, 4 and 5 using an Olympus inverted microscope and a 10× objective.
The standard exponential cell growth model (28) was used to describe the changes in live cell counts after each treatment. According to this model, the cell count (e.g., N) at a particular time (e.g., t), is given by the equation:
N* is the initial cell count and λ is the cell growth rate. For each cell line, the following cell growth rates were estimated: λ=growth rate in the absence of forces and drugs, λd=growth rate in the presence of a particular drug but no forces, λXf=growth rate in the presence of forces but no drugs; and λfd=growth rate in the presence of forces and a particular drug. The growth rates λd and λfd were estimated for each tested drug. Using these growth rates and the exponential growth model, the final cell counts were mathematically modeled for each treatment under various conditions (FIG. 8). For each cell line, a linear regression model that combined the information from the 5 investigated drugs was built using Stata Statistical Software (StataCorp LP, Texas) after log-transforming the six equations listed in FIG. 8. The regression coefficients in the model were the growth rates.

NCI-H358 cells = test: as above; format: cell-based, human; conditions: for Growth Rates, With forces / Growth Rates, Without forces: drug at IC90 for 3 days; for Growth Rates, With forces: 20% maximum strain, 15 cycles/minute; for Growth Rates, Without forces: no forces; for Effectiveness of The Drug, Without forces (E) / Effectiveness of The Drug, With forces (Ef): percentage reduction in live cell counts; for Effectiveness of The Drug, Without forces (E): 3-day drug exposure at IC90, no forces; for Effectiveness of The Drug, With forces (Ef): 3-day drug exposure at IC90, simulated forces
Description: as §1
The NCI-H358 (ATCC® CRL-5807) and A549 (ATCC® CCL-185) cell lines were obtained from American Type Culture Collection (ATCC, Manassas, Va.) and cultured in RPMI-1640 (NCI-H358) and HAM's F12K (A549) media containing 10% Fetal Bovine Serum (Sigma Aldrich, St. Louis, Mo.) and 1% Penicillin Streptomycin (Sigma Aldrich). Cells were passaged in 75 cm2 culture flasks at 37° C. in 5% CO2, and trypsinized using TryplE™ Express (Gibco) containing phenol red.
Cells were plated in 6-well Bioflex® plates (Flexcell® International Corporation, Hillsborough, N.C.). Each well of the plate has a flexible elastic membrane coated with a thin layer of type I collagen. Type I collagen was chosen since it more accurately represents the physiology of lung tumor cells in vivo. The Flexcell is not configured for drug studies as described herein, and had to be modified as described herein. […] Therefore, to have the same number of cells in culture at the time of drug exposure, initial seeding densities for treatments not involving simulated forces (Treatments 1-3) and those involving forces (Treatments 4-6) were adjusted for each cell line. In Treatments 1, 2 and 3, NCI-H358 and A549 cells were plated at a density of 100,000 and 20,000 cells/well in 2 ml of corresponding media, respectively. For treatments involving simulated forces (Treatments 4-6), NCI-H358 and A549 cells were plated at a density of 170,000 and 35,000 cells/well, respectively.
as §2, with “baseplate. […] Cells were preconditioned with mechanical forces for 48 hours, in an incubator at 37° C., 5% CO2 and 95% relative humidity.” for “baseplate.”
(§4) After 72 hours of initial seeding, one of the five drugs was added to Treatments 3 and 6 of each cell line. […] The IC90, concentration of the drug that inhibits the growth of 90% of the cells in a static monolayer culture, was used to assure a significant inhibition in the absence of simulated forces. To insure comparability, an aliquot of 1 ml of media without the drug was added to each well in Treatments 2 and 5. After adding the drug or 1 ml of media, the plates from Treatments 5 and 6 were placed back on the baseplate and subjected to the same force profile as before for the remaining 72 hours. Plates from Treatments 2 and 3 (without forces) were placed in the same incubator for the remaining 72 hours.
as §3
The standard exponential cell growth model (28) was used to describe the changes in live cell counts after each treatment. […]

[2] = system: cells in a static monolayer culture; test: IC90 in static monolayer culture (tested concentration); format: cell-based; conditions: concentration that inhibits the growth of 90% of the cells in a static monolayer culture
Method: Table 1 includes a list of investigated chemotherapeutic drugs, their mechanisms of action and the tested concentrations.
as §4

H358 cells [3] = test: Prototype 96-well plate, MTS assay with and without mechanical forces; format: cell-based, human; conditions: drug at IC90, 24 hours, 490 nm; for MTS absorbance after 24 hours of drug exposure, With forces (Ef): mechanical forces; for MTS absorbance after 24 hours of drug exposure, Without forces (E): no forces
Method: (§5) The prototype plate was read using the Biotek plate reader at the wavelength of 490 nm until the media only wells absorbance reached 1.0. For the +M group plate, 30 ul of MTS was added to the assigned wells and kept in the incubator for the same amount of time that required for the −M group to develop and read at the same wavelength.

A549 cells [4] = test: as above; format: cell-based, human
Method: as §5

A549 cells [5] = test: Prototype 96-well plate, viable cell count (Vi-Cell) with and without mechanical forces
Method: (§6) After allowing the cells to adhere to the flexible membrane of the 96 well plate for 24 hours, the loading pins and the system described in FIG. 7 to implement mechanical strain were used to deliver 20% maximum strain for 2 seconds to the plate assigned for mechanical forces (+M Group), followed by 2 seconds of rest (15 cycles per minute with an average strain of 10% per cycle) in keeping with a normal human respiration.
(§7) In a parallel experiments, the cells were treated with anti-tumor drug after 72 hours of initial seeding (after 48 hours of mechanical stretching). The drug was dissolved in dimethyl sulfoxide (DMSO) at stock concentration and added to the respective media. […] The IC90 concentrations of the drugs were then added to prototype plate.
(§8) The +M Group was subjected to continuous mechanical stretching while the −M Group plate was placed in the same incubator for additional 24 hours.
(§9) In order to quantify viability, 6 wells per treatment group for ViCell counter and 6 wells per condition for MTS were assigned to determine the cell viability. Using Vi-Cell counter, assigned wells were filled with extra 210 μl of media to keep the volume constant in all the wells. Media from the assigned wells were transferred into a 24-well plate, and the well location was recorded. About 50 μl of trypLE was added to each well and allowed to trypsinize for a maximum of ten minutes. A small amount of media from the 24-well plate was transferred back into corresponding wells of the prototype plate to collect detached cells.
(§10) Media and cells were transferred back into the corresponding well of the 24-well plate. All wells were brought to a final volume of 1.25 mL with PBS and mixed well. About 1 ml of this cell suspension was transferred to ViCell counter to determine the number of viable cells.

H358 cells [6] = test: as above; format: cell-based, human; conditions: for Effect of mechanical forces on viable cell count / cytotoxicity: 24 hours drug exposure, prototype 96-well plate; for Viable Cell Count after 24 hours of drug exposure, With forces (Ef) / Viable Cell Count after 24 hours of drug exposure, Without forces (E): drug at IC90, 24 hours; for Viable Cell Count after 24 hours of drug exposure, With forces (Ef): mechanical forces; for Viable Cell Count after 24 hours of drug exposure, Without forces (E): no forces
Method: as §6
In a parallel experiments, the cells were treated with anti-tumor drug after 72 hours of initial seeding (after 48 hours of mechanical stretching). The drug was dissolved in dimethyl sulfoxide (DMSO) at stock concentration and added to the respective media. An aliquot of 50 μl of drug stock solution was added to the well containing 100 μl of media (a 1:3 dilution) in a drug plate to get the desired IC90 concentration of the drug (Table 1). The IC90 concentrations of the drugs were then added to prototype plate.
as §8
In order to quantify viability, 6 wells per treatment group for ViCell counter and 6 wells per condition for MTS were assigned to determine the cell viability. Using Vi-Cell counter, assigned wells were filled with extra 210 μl of media to keep the volume constant in all the wells.

A549 cells [7] = system: A549 cells
Method: as §6, §7, §8, §9, §10

SMILES	Growth Rates, With forces (A549 cells [1]) [per day]	Growth Rates, Without forces (A549 cells [1]) [per day]	Effectiveness of The Drug, Without forces (E) (A549 cells [1]) [%]	Effectiveness of The Drug, With forces (Ef) (A549 cells [1]) [%]	Growth Rates, With forces (NCI-H358 cells) [per day]	Growth Rates, Without forces (NCI-H358 cells) [per day]	Effectiveness of The Drug, Without forces (E) (NCI-H358 cells) [%]	Effectiveness of The Drug, With forces (Ef) (NCI-H358 cells) [%]	IC90 [2] [µM]	MTS absorbance after 24 hours of drug exposure, With forces (Ef) (H358 cells [3])	MTS absorbance after 24 hours of drug exposure, Without forces (E) (H358 cells [3])	Effect of mechanical forces on viable cell count / cytotoxicity (H358 cells [6])	Viable Cell Count after 24 hours of drug exposure, With forces (Ef) (H358 cells [6])	Viable Cell Count after 24 hours of drug exposure, Without forces (E) (H358 cells [6])	also measured
N.N.[Cl][Pt][Cl] [Cisplatin]	−0.211	−0.204	91.6	74.7	−0.233	−0.027	72.4	62.1	50	–	–	–	–	–	Effectiveness of The Drug, Without forces (E) (A549 cells [1]; listed as P00004): 91.6%; Effectiveness of The Drug, With forces (Ef) (A549 cells [1]; listed as P00004): 74.7%
COc1cc2c(Nc3ccc(Br)cc3F)ncnc2cc1OCC1CCN(C)CC1 [Zactima]	−0.398	−0.055	86.8	85.6	−0.833	−0.163	81.6	93.7	50	0.368	0.536	decrease in the ability	11000.0	22000.0	MTS absorbance after 24 hours of drug exposure, With forces (Ef) (A549 cells [4]; A549, drug at IC90, 24 hours, 490 nm, mechanical forces): 0.307; MTS absorbance after 24 hours of drug exposure, Without forces (E) (A549 cells [4]; A549, drug at IC90, 24 hours, 490 nm, no forces): 0.495; Effectiveness of The Drug, Without forces (E) (NCI-H358 cells; listed as P00006): 81.6%; Effectiveness of The Drug, With forces (Ef) (NCI-H358 cells; listed as P00006): 93.7%; Effect of mechanical forces on viable cell count / cytotoxicity (A549 cells [5]; 24 hours drug exposure, prototype 96-well plate): remained unaffected; Viable Cell Count after 24 hours of drug exposure, With forces (Ef) (A549 cells [5]; drug at IC90, 24 hours, mechanical forces): 15625.0; Viable Cell Count after 24 hours of drug exposure, Without forces (E) (A549 cells [5]; drug at IC90, 24 hours, no forces): 23333.3
COc1cccc2c1C(=O)c1c(O)c3c(c(O)c1C2=O)C[C@@](O)(C(=O)CO)C[C@@H]3O[C@H]1C[C@H](N)[C@H](O)[C@H](C)O1 [Doxorubicin]	−0.268	−0.170	90.7	78.7	−0.357	−0.031	72.7	73.9	30	0.488	0.629	decrease in the ability	7500.0	17750.0	MTS absorbance after 24 hours of drug exposure, With forces (Ef) (A549 cells [4]): 0.430; MTS absorbance after 24 hours of drug exposure, Without forces (E) (A549 cells [4]): 0.697; Effect of mechanical forces on viable cell count / cytotoxicity (A549 cells [7]): Statistically significant reduction
